In US11339161B2, “Triazolo pyridines as modulators of gamma-secretase” (Boehringer Ingelheim International GmbH, priority 2017, dated 2022):
Like-named read-outs stand apart in the source and are kept apart here.

Legend:
Aβ42 production = experiment: Inhibition of Aβ42 production in H4 neuroglioma cells stably expressing human APP695 (MSD electrochemiluminescence); assay type: cell-based
ABL1 = ABL1 (Homo sapiens, UniProt P00519); experiment: Z'-LYTE SelectScreen biochemical kinase assay ABL1
Text: (§1) Thermo Fisher Scientific SelectScreen™ Biochemical Kinase Profiling Service Z′-LYTE™ Screening Protocol and Assay Conditions Assay Theory
(§2) The […] biochemical assay employs a fluorescence-based, coupled-enzyme format and is based on the differential sensitivity of phosphorylated and non-phosphorylated peptides to proteolytic cleavage. The peptide substrate is labeled with two fluorophores—one at each end—that make up a FRET pair. In the primary reaction, the kinase transfers the gamma-phosphate of ATP to a single tyrosine, serine or threonine residue in a synthetic FRET-peptide. In the secondary reaction, a site-specific protease recognizes and cleaves non-phosphorylated FRET-peptides. Phosphorylation of FRET-peptides suppresses cleavage by the Development Reagent. Cleavage disrupts FRET between the donor (i.e., coumarin) and acceptor (i.e., fluorescein) fluorophores on the FRET-peptide, whereas uncleaved, phosphorylated FRET-peptides maintain FRET. A ratiometric method, which calculates the ratio (Emission Ratio=Coumarin emission (445 nm)/Fluorescein emission (520 nm)) of donor emission to acceptor emission after excitation of the donor fluorophore at 400 nm, is used to quantitate reaction progress, as shown in the equation below. A significant benefit of this ratiometric method for quantitating reaction progress is the elimination of well-to-well variations in FRET-peptide concentration and signal intensities. As a result, the assay yields very high Z′-factor values (>0.7) at a low percent phosphorylation. Both cleaved and uncleaved FRET-peptides contribute to the fluorescence signals and therefore to the Emission Ratio. The extent of phosphorylation of the FRET-peptide can be calculated from the Emission Ratio. The Emission Ratio will remain low if the FRET-peptide is phosphorylated (i.e., no kinase inhibition) and will be high if the FRET-peptide is non-phosphorylated (i.e., kinase inhibition).
(§3) The Test Compounds are screened in 1% DMSO (final) in the well. For 10 point titrations, 3-fold serial dilutions are conducted from the starting concentration of the customer's choosing.
(§4) All Peptide/Kinase Mixtures are diluted to a 2× working concentration in the appropriate Kinase Buffer (see section Kinase Specific Assay Conditions for a complete description).
(§5) All ATP Solutions are diluted to a 4× working concentration in Kinase Buffer (50 mM HEPES pH 7.5, 0.01% BRIJ-35, 10 mM MgCl2, 1 mM EGTA). ATP Km apparent is previously determined using a Z″-LYTE assay.
(§6) The Development Reagent is diluted in Development Buffer (see section Kinase-Specific Assay Conditions—Direct and Cascade for a complete description).
(§7) Bar-coded Corning, low volume NBS, black 384-well plate (Corning Cat. #4514) • 1. 100 nL—100× Test Compound in 100% DMSO • 2. 2.4 μL—Kinase buffer • 3. 5 μL—2× Peptide/Kinase Mixture • 4. 2.5 μL—4×ATP Solution • 5. 30—second plate shake • 6. 60—minute Kinase Reaction incubation at room temperature • 7. 5 μL—Development Reagent Solution • 8. 30—second plate shake • 9. 60—minute Development Reaction incubation at room temperature • 10. Read on fluorescence plate reader and analyze the data Z′-LYTE Assay Controls
(§8) SelectScreen Kinase Profiling Service uses XLfit from IDBS. The dose response curve is curve fit to model number 205 (sigmoidal dose-response model).
(§9) The 2×ABL1/Tyr 02 mixture is prepared in 50 mM HEPES pH 7.5, 0.01% BRIJ-35, 10 mM MgCl2, 1 mM EGTA. The final 10 μL Kinase Reaction consists of 0.29-1.26 ng ABL1 and 2 μM Tyr 02 in 50 mM HEPES pH 7.5, 0.01% BRIJ-35, 10 mM MgCl2, 1 mM EGTA. After the 1 hour Kinase Reaction incubation, 5 μL of a 1:128 dilution of Development Reagent A is added.

FGFR2 = FGFR2 (Homo sapiens, UniProt P21802); experiment: Z'-LYTE SelectScreen biochemical kinase assay FGFR2
Chain of FGFR2 (P21802 22-821): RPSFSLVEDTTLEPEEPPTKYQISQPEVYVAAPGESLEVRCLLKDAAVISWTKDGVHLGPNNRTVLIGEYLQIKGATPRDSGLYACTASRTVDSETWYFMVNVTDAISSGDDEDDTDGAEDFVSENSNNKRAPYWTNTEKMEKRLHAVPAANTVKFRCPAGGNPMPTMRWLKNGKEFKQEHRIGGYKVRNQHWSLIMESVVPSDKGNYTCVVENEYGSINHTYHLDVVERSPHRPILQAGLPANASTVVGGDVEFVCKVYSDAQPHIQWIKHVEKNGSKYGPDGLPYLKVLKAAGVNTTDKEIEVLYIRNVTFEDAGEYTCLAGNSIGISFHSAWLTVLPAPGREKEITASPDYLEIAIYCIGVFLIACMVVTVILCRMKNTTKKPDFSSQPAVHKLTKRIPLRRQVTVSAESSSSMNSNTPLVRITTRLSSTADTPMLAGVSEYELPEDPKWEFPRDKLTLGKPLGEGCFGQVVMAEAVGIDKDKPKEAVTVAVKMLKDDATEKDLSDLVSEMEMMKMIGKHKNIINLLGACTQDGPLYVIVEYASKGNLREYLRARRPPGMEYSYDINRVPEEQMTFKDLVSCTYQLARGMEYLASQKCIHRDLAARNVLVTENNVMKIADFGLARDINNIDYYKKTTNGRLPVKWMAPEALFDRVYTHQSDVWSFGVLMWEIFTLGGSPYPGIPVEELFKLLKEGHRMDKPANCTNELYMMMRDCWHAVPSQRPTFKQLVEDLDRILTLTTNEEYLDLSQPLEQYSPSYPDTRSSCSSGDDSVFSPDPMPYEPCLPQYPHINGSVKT
Text: as §1, §2, §3, §4, §5, §6, §7, §8
The 2×FGFR2/Tyr 04 mixture is prepared in 50 mM HEPES pH 7.5, 0.01% BRIJ-35, 10 mM MgCl2, 4 mM MnCl2, 1 mM EGTA, 2 mM DTT. The final 10 μL Kinase Reaction consists of 0.19-1.99 ng FGFR2 and 2 μM Tyr 04 in 50 mM HEPES pH 7.5, 0.01% BRIJ-35, 10 mM MgCl2, 2 mM MnCl2, 1 mM EGTA, 1 mM DTT. After the 1 hour Kinase Reaction incubation, 5 μL of a 1:64 dilution of Development Reagent B is added.

MAP4K4 (HGK) = MAP4K4 (HGK) (Homo sapiens, UniProt O95819); experiment: Z'-LYTE SelectScreen biochemical kinase assay MAP4K4 (HGK)
Chain of MAP4K4 (HGK) (O95819 whole entry): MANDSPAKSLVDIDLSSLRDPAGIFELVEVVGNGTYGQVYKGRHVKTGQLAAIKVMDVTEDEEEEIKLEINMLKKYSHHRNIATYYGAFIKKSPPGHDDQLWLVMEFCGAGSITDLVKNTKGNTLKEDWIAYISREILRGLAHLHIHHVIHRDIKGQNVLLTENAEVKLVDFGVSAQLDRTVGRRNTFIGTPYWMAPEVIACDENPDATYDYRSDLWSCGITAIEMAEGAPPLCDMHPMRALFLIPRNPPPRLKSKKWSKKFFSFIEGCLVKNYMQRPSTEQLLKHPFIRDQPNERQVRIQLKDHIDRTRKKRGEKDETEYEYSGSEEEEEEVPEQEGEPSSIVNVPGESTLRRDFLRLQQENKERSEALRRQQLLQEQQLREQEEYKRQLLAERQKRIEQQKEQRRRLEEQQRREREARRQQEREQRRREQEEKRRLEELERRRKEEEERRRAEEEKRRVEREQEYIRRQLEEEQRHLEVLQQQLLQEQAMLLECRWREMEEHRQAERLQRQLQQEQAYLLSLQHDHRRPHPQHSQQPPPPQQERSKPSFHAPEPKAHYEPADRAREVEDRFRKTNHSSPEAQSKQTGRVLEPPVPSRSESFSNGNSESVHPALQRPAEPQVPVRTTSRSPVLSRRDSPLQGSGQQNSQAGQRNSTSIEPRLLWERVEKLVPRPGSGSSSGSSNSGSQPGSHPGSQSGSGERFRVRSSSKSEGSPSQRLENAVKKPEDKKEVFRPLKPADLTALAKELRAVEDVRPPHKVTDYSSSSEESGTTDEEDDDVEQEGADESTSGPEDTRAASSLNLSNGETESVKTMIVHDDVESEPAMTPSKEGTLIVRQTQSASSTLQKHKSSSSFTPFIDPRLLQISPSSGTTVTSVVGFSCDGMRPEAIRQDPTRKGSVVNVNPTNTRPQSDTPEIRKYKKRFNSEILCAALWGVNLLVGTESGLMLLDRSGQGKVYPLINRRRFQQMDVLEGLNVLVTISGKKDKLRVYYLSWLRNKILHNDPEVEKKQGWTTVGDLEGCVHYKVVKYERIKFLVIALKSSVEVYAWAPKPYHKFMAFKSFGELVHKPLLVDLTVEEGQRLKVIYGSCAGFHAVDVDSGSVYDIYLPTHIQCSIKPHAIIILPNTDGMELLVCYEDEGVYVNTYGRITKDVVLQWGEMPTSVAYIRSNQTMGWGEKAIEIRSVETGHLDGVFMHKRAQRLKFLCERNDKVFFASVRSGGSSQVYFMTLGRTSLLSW
Text: as §1, §2, §3, §4, §5, §6, §7, §8
as §9, with “2×MAP4K4 (HGK)/Ser/Thr 07” for “2×ABL1/Tyr 02”, “0.36-1.82” for “0.29-1.26”, “MAP4K4 (HGK)” for “ABL1”, “Ser/Thr 07” for “Tyr 02”, “1:45000” for “1:128”

[1] = H4 neuroglioma cells expressing human APP695, 22 hours incubation, Table 4a
[2] = 10 μmolar compound concentration, ATP at Km app, read-out: ABL1 inhibition
[3] = read-out: % Inhibition mean ABL1
[4] = 10 μmolar compound concentration, ATP at Km app, read-out: FGFR2 inhibition
[5] = read-out: % Inhibition mean FGFR2
[6] = 10 μmolar compound concentration, ATP at Km app, read-out: MAP4K4 (HGK) inhibition
[7] = read-out: % Inhibition mean MAP4K4 (HGK)

Chain of ABL1 (P00519 whole entry): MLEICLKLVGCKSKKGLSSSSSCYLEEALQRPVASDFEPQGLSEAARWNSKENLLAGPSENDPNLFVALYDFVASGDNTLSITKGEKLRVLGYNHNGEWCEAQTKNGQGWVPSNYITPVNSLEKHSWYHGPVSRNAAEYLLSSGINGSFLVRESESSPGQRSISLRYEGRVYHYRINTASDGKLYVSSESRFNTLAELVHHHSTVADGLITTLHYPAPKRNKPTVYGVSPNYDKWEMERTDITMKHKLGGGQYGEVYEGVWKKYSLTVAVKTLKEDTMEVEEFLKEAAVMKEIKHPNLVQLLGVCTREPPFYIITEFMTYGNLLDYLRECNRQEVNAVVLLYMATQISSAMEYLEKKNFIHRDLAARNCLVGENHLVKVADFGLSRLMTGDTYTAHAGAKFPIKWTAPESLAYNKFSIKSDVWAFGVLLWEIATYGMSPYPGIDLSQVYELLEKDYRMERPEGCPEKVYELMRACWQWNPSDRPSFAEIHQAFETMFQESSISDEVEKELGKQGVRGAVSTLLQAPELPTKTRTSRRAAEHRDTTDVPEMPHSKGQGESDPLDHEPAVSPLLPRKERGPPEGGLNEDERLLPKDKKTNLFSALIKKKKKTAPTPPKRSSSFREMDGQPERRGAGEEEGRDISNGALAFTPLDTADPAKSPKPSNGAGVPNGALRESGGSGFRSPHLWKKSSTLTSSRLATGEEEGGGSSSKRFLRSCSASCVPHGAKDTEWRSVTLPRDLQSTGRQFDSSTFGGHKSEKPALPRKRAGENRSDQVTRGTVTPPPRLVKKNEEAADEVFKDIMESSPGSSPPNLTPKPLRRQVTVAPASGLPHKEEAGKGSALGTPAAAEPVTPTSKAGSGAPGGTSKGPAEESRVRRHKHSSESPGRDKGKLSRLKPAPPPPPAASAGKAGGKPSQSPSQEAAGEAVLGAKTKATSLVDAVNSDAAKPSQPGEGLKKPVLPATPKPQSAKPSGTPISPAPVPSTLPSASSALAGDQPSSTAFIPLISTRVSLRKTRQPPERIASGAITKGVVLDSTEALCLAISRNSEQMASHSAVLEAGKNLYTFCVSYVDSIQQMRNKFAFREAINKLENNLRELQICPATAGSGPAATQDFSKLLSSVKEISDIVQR

Row | Structure (SMILES) | IC50 (Aβ42 production; [1]) [nM] | inhibition at 10 µM (ABL1; [2]) [%] | inhibition at 10 µM (ABL1; [3]) [%] | inhibition at 10 µM (FGFR2; [4]) [%] | inhibition at 10 µM (FGFR2; [5]) [%] | inhibition at 10 µM (MAP4K4 (HGK); [6]) [%] | inhibition at 10 µM (MAP4K4 (HGK); [7]) [%] | IC50 (Aβ42 production; Homo sapiens, H4 neuroglioma cells, same assay as table 4a, prior art compounds, Table 4b) [nM] | inhibition at 10 µM (ABL1; read-out: % Inhibition mean) [%] | inhibition at 10 µM (FGFR2; read-out: % Inhibition mean) [%] | inhibition at 10 µM (MAP4K4 (HGK); read-out: % Inhibition mean) [%] | modulation of γ-secretase (in words) (Aβ42 production; tables 4a/4b)
1 | CCn1ncc2c1CCC(Nc1nc3c(-c4cccnc4)cccn3n1)C2 (stereo not shown) [Example 63, (1-Ethyl-4,5,6,7-tetrahydro-1H-indazol-5-yl)-(8-pyridin-3-yl-[1,2,4]triazolo[1,5-a]pyridine-2-yl)-amine] | 350 | < 40 | 15 | < 40 | 16 | 40 to 80 | 48 |  |  |  |  | 
2 | CCn1ncc2c1CCC(Nc1nc3c(-c4ccc(F)cc4C)cccn3n1)C2 (stereo not shown) [Example 42, (1-Ethyl-4,5,6,7-tetrahydro-1H-indazol-5-yl)-[8-(4-fluoro-2-methyl-phenyl)-[1,2,4]triazolo[1,5-a]pyridine-2-yl]-amine] | 70 | < 40 | 19 | < 40 | 26 | < 40 | 37 |  |  |  |  | 
3 | CC1(C)C(=O)Nc2ccc(Nc3nc4c(-c5cccc(F)c5)cccn4n3)cc21 [Cpd. 263 in WO09155551, reference compound] |  | > 80 |  | > 80 |  | > 80 |  | 6000 | 99 | 102 | 98 | rather poor modulation
4 | CCn1ncc2c1CCC(Nc1nc3c(-c4cccnc4OC)cccn3n1)C2 (stereo not shown) [Example 69, (1-Ethyl-4,5,6,7-tetrahydro-1H-indazol-5-yl)-[8-(2-methoxy-pyridin-3-yl)-[1,2,4]triazolo[1,5-a]pyridine-2-yl]-amine] | 500 | < 40 | 13 | < 40 | 1 | < 40 | 39 |  |  |  |  | 

Now from value to compound, other results behind:

Row | IC50 (Aβ42 production; [1]) [nM] | inhibition at 10 µM (ABL1; [2]) [%] | inhibition at 10 µM (ABL1; [3]) [%] | inhibition at 10 µM (FGFR2; [4]) [%] | inhibition at 10 µM (FGFR2; [5]) [%] | inhibition at 10 µM (MAP4K4 (HGK); [6]) [%] | inhibition at 10 µM (MAP4K4 (HGK); [7]) [%] | IC50 (Aβ42 production; Homo sapiens, H4 neuroglioma cells, same assay as table 4a, prior art compounds, Table 4b) [nM] | inhibition at 10 µM (ABL1; read-out: % Inhibition mean) [%] | inhibition at 10 µM (FGFR2; read-out: % Inhibition mean) [%] | inhibition at 10 µM (MAP4K4 (HGK); read-out: % Inhibition mean) [%] | Structure (SMILES) | modulation of γ-secretase (in words) (Aβ42 production; tables 4a/4b)
5 | 194 | < 40 | 13 | < 40 | 13 | < 40 | 11 |  |  |  |  | CCn1ncc2c1CC[C@H](Nc1nc3c(-c4ccc(F)c(Cl)c4)cccn3n1)C2 [Example S-61, (S)-[8-(3-Chloro-4-fluoro-phenyl)-[1,2,4]triazolo[1,5-a]pyridine-2-yl]-(1-ethyl-4,5,6,7-tetrahydro-1H-indazol-5-yl)-amine] | 
6 | 40 | < 40 | 14 | < 40 | 30 | 40 to 80 | 56 |  |  |  |  | CCn1ncc2c1CC[C@@H](Nc1nc3c(-c4ccc(F)cc4C)cccn3n1)C2 [Example R-42, (R)-(1-Ethyl-4,5,6,7-tetrahydro-1H-indazol-5-yl)-[8-(4-fluoro-2-methyl-phenyl)-[1,2,4]triazolo[1,5-a]pyridine-2-yl]-amine] | 
